Test results from patent publication US20050245463A1, “Novel antiretroviral sulfolipids extracted from spirulinae, method for obtaining same, compositions containing same and use thereof as inhibitors of the hiv virus reverse transcriptase” (priority 2002, published 2005).
≈ marks a conversion by molar mass, not a printed value.

Experiments:
Format in all cases: biochemical
[1] = target: T1, DNA polymerase of HIV-1 reverse transcriptase (Human immunodeficiency virus type 1 group M subtype B, UniProt P03366); assay: Inhibition of the DNA polymerase of HIV-1 reverse transcriptase; conditions: for IC50: concentration that inhibits 50% of the initial enzymatic activity; for IC90: concentration that inhibits 90% of the initial enzymatic activity; for inhibitory activity towards the DNA polymerase of HIV-1 reverse transcriptase (in words): ranking among molecular species
T1 construct: The HIV-1 and HIV-2 reverse transcriptases are the hetero-dimers p.66/p.5 l and p.68/p.55, respectively; made in house; host or cells: E. coli
Procedure: (§1) The reverse transcriptases used in this study are the recombinant enzymes expressed in E. coli and purified from the bacterial extracts (16). The HIV-1 reverse transcriptase expression plasmid originates from the proviral isolate BH-10 (17), while the HIV-2 reverse transcriptase expression plasmid originates from the isolate pRod (18). The HIV-1 and HIV-2 reverse transcriptases are the hetero-dimers p.66/p.5 l and p.68/p.55, respectively.
(§2) The enzymatic tests are performed by the method of Loya et al. (19). The DNA polymerase activity is measured by monitoring the incorporation of […] into the product insoluble in trichloroacetic acid (TCA), in the presence of different concentrations of sulfolipids. The RNase-H activity is measured by measuring the delivery of the TCA-soluble product from the synthetic substrate [^3H]poly(rA)n.poly (dT)n. This substrate is prepared by the procedure of Hizi et al. (1991) (20). In all the inhibition experiments, the enzymes are preincubated for 5 min at 30° C. in the absence or presence of inhibitors at different concentrations. The enzymatic reactions are started by the addition of appropriate substrate at 37° C. for 30 min.
(§3) The residual enzymatic activity is calculated relative to the initial rates of the (linear) reaction observed in the absence of sulfolipids.
The concentration of inhibitors that leads to 50% inhibition of the enzymatic activities (IC50) is calculated from the curves of inhibition as a function of inhibitor (sulfolipid) concentration.
(§4) (a) One unit of DNA polymerase activity is the amount of enzyme which catalyzes the incorporation of one pmol of dNTP into the DNA product at 37° C. over 30 min under standard test conditions.

[2] = target: T2, RNase-H of HIV-1 reverse transcriptase (Human immunodeficiency virus type 1 group M subtype B, UniProt P03366); assay: Inhibition of the RNase-H of HIV-1 reverse transcriptase; conditions: for RNase-H % of initial enzymatic activity: 100 μM of each sulfolipid molecular species, residual activity as % of control without inhibitor; for inhibition of the RNase-H of HIV-1 reverse transcriptase (in words): ranking among molecular species
T2 construct: The HIV-1 and HIV-2 reverse transcriptases are the hetero-dimers p.66/p.5 l and p.68/p.55, respectively; made in house; host or cells: E. coli
Procedure: as §1, §2, §3
(b) One unit of RNase-H activity is the amount of enzyme which catalyzes the hydrolysis of one pmol of AMP at 37° C. over 30 min under standard test conditions.

[3] = target: T3, DNA polymerase activity of HIV-2 reverse transcriptase (Human immunodeficiency virus type 2 subtype A, UniProt P04584); assay: DNA polymerase activity of HIV-2 reverse transcriptase
T3 construct: The HIV-1 and HIV-2 reverse transcriptases are the hetero-dimers p.66/p.5 l and p.68/p.55, respectively; made in house; host or cells: E. coli
T3 sequence (P04584 613-1051): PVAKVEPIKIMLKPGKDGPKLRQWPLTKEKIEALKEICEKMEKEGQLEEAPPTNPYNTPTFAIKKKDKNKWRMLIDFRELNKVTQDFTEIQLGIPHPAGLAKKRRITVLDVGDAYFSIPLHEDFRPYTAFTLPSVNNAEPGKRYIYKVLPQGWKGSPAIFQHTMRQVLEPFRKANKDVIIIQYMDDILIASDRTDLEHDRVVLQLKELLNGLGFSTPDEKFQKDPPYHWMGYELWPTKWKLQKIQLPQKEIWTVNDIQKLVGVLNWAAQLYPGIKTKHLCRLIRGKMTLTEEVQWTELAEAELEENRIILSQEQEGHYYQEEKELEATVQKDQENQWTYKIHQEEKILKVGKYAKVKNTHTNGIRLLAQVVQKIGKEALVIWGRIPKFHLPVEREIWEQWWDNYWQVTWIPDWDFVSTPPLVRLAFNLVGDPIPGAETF
T3 sequence (P04584 613-1171): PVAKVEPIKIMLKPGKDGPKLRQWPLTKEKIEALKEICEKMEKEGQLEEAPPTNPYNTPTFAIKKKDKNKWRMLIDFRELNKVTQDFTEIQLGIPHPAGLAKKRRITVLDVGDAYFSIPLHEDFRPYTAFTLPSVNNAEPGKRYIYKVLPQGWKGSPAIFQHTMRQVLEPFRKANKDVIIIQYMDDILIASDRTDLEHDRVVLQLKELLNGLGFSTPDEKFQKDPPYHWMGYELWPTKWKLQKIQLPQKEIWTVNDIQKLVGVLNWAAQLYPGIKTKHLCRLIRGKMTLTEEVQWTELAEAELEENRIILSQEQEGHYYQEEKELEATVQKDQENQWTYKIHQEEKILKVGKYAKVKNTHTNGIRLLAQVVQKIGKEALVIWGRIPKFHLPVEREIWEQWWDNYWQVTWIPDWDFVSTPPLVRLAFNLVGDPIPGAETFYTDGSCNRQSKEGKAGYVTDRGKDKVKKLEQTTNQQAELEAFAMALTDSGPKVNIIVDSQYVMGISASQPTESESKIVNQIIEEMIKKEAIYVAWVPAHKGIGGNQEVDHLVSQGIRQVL
Procedure: as §1, §2, §3, §4

Row | SMILES | IC50 [1] [µM] | IC90 [1] [µg/mL] | RNase-H % of initial enzymatic activity [2] | inhibition of the RNase-H of HIV-1 reverse transcriptase (in words) [2] | inhibitory activity towards the DNA polymerase of HIV-1 reverse transcriptase (in words) [1] | inhibitory activity towards the DNA polymerase activity of HIV-2 reverse transcriptase (in words) [3] | further results
1 | CCCCCC=CCC=CCCCCCCCC(=O)OCC(COC1OC(CS(=O)(=O)O)C(O)C(O)C1O)OC(=O)CCCCCCCC=CCC=CCCCCC (stereo not shown) [C18:2/C18:2] | 331 | 840 (≈ 996 µM) | 100% |  |  |  | 
2 | CCCCCCCCCCCCCCCC(=O)OCC(COC1OC(CS(=O)(=O)O)C(O)C(O)C1O)OC(=O)CCCCCCCCCCCCCCC (stereo not shown) [C16:0/C16:0] | 133 | 452 (≈ 568 µM) | 47 + 4% | highest activities |  |  | 
3 | CCCCCCC=CCCCCCCCC(=O)OCC(COC1OC(CS(=O)(=O)O)C(O)C(O)C1O)OC(=O)CCCCCCCCCCCCCCC (stereo not shown) [C16:1/C16:0] | 110 | 302 (≈ 381 µM) | 42 + 3% | highest activities |  |  | Residual enzymatic activity (%) ([3]; 10.2 + 0.5 μg/ml): 100 + 1%; Residual enzymatic activity (%) ([3]; 25.0 + 0.6 μg/ml): 96 + 1%; Residual enzymatic activity (%) ([3]; 48.9 + 0.9 μg/ml): 69 + 1%; Residual enzymatic activity (%) ([3]; 97.5 + 1.5 μg/ml): 58 + 2%; Residual enzymatic activity (%) ([3]; 108.0 + 3.0 μg/ml): 50 + 1%; Residual enzymatic activity (%) ([3]; 198.5 + 3.4 μg/ml): 24 + 2%
4 | CCCCCCCCC=CCCCCCCCC(=O)OCC(COC1OC(CS(=O)(=O)O)C(O)C(O)C1O)OC(=O)CCCCCCCC=CCCCCCCCC (stereo not shown) [C18:1/C18:1] | 23.7 | 68.3 (≈ 80.6 µM) | 60 + 2% | highest activities | highest activities | the highest | Residual enzymatic activity (%) ([3]; 4.0 + 0.5 μg/ml): 100 + 1%; Residual enzymatic activity (%) ([3]; 8.0 + 0.6 μg/ml): 92 + 1%; Residual enzymatic activity (%) ([3]; 16.0 + 0.7 μg/ml): 70 + 2%; Residual enzymatic activity (%) ([3]; 26.1 + 1.8 μg/ml): 50 + 1%; Residual enzymatic activity (%) ([3]; 36.0 + 1.0 μg/ml): 35 + 1%; Residual enzymatic activity (%) ([3]; 71.9 + 1.0 μg/ml): 22 + 2%
5 | CCCCCC=CCC=CCCCCCCCC(=O)OCC(COC1OC(CS(=O)(=O)O)C(O)C(O)C1O)OC(=O)CCCCCCCC=CCCCCCCCC (stereo not shown) [C18:2/C18:1] | 297 | 753 (≈ 891 µM) | 100% |  |  |  | 
6 | CCCCCC=CCC=CCCCCCCCC(=O)OCC(COC1OC(CS(=O)(=O)O)C(O)C(O)C1O)OC(=O)CCCCCCCCCCCCCCC (stereo not shown) [C18:2/C16:0] | 92 | 281 (≈ 344 µM) | 100% |  | highest activities | have an inhibitory activity | Residual enzymatic activity (%) ([3]; 9.5 + 0.9 μg/ml): 100 + 1%; Residual enzymatic activity (%) ([3]; 23.8 + 0.9 μg/ml): 96 + 2%; Residual enzymatic activity (%) ([3]; 47.7 + 1.8 μg/ml): 70 + 2%; Residual enzymatic activity (%) ([3]; 95.4 + 2.0 μg/ml): 56 + 2%; Residual enzymatic activity (%) ([3]; 105.0 + 5.0 μg/ml): 50 + 1%; Residual enzymatic activity (%) ([3]; 190.8 + 4.8 μg/ml): 25 + 2%
7 | CCCCCC=CCC=CCCCCCCCC(=O)OC(COC(=O)CCCCCCCC=CCCCCCCCC)COC1OC(CS(=O)(=O)O)C(O)C(O)C1O (stereo not shown) [C18:1/C18:2] | 248 | 628 (≈ 743 µM) | 100% |  |  |  | 
8 | CCCCCCCCC=CCCCCCCCC(=O)OCC(COC1OC(CS(=O)(=O)O)C(O)C(O)C1O)OC(=O)CCCCCCCCCCCCCCC (stereo not shown) [C18:1/C16:0] | 29.1 | 73.6 (≈ 89.6 µM) | 64 + 6% | highest activities | highest activities | have an inhibitory activity | Residual enzymatic activity (%) ([3]; 4.8 + 0.9 μg/ml): 100 + 1%; Residual enzymatic activity (%) ([3]; 9.6 + 0.9 μg/ml): 93 + 2%; Residual enzymatic activity (%) ([3]; 19.1 + 0.9 μg/ml): 74 + 2%; Residual enzymatic activity (%) ([3]; 33.5 + 2.0 μg/ml): 50 + 1%; Residual enzymatic activity (%) ([3]; 38.3 + 1.8 μg/ml): 42 + 2%; Residual enzymatic activity (%) ([3]; 76.5 + 2.0 μg/ml): 24 + 2%
9 | CCCCCC=CCC=CCC=CCCCCC(=O)OCC(COC1OC(CS(=O)(=O)O)C(O)C(O)C1O)OC(=O)CCCCCCCCCCCCCCC (stereo not shown) [γC18:3/C16:0] | 218 | 533 (≈ 652 µM) | 100% |  |  |  | 
